#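 96-well plates; 48 h exposure; 5 concentrations. Endpoints by linear interpolation between flanking doses. Not reached: highest tested concentration assigned. Abbreviation: GI50, concentration required for 50% inhibition of growth. The concentration for full growth arrest is given as TGI.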
# Key:
# Assay in all cases: NCI tumour cell line growth inhibition, 48 h
# SK-MEL-28 melanoma = tested on: SK-MEL-28 melanoma
# UACC-62 melanoma = tested on: UACC-62 melanoma
# PC-3 prostate = tested on: PC-3 prostate
# SF-539 CNS = tested on: SF-539 CNS
# SN12C renal = tested on: SN12C renal
# CAKI-1 renal = tested on: CAKI-1 renal
# CCRF-CEM leukemia = tested on: CCRF-CEM leukemia
# MDA-MB-435 = tested on: MDA-MB-435
# SF-295 CNS = tested on: SF-295 CNS
# BT-549 breast = tested on: BT-549 breast
# K-562 leukemia = tested on: K-562 leukemia
# SF-268 CNS = tested on: SF-268 CNS
# COLO 205 colon = tested on: COLO 205 colon
# MCF7 breast = tested on: MCF7 breast
# HT29 colon = tested on: HT29 colon
# NCI-H460 lung = tested on: NCI-H460 lung
# TK-10 renal = tested on: TK-10 renal
# UO-31 renal = tested on: UO-31 renal
# A549 NSCLC = tested on: A549 NSCLC
# SR leukemia = tested on: SR leukemia
# U251 CNS = tested on: U251 CNS
# EKVX NSCLC = tested on: EKVX NSCLC
# NCI-H522 lung = tested on: NCI-H522 lung
# HL-60(TB) leukemia = tested on: HL-60(TB) leukemia
# MDA-MB-231 breast = tested on: MDA-MB-231 breast
# RXF 393 renal = tested on: RXF 393 renal
# IGROV1 ovarian = tested on: IGROV1 ovarian
# MALME-3M melanoma = tested on: MALME-3M melanoma
# UACC-257 melanoma = tested on: UACC-257 melanoma
# HOP-62 NSCLC = tested on: HOP-62 NSCLC
# SNB-75 CNS = tested on: SNB-75 CNS
# M14 melanoma = tested on: M14 melanoma
# HS 578T breast = tested on: HS 578T breast
# ACHN renal = tested on: ACHN renal
# OVCAR-8 ovarian = tested on: OVCAR-8 ovarian
# NCI-H226 lung = tested on: NCI-H226 lung
# OVCAR-4 ovarian = tested on: OVCAR-4 ovarian
# OVCAR-5 ovarian = tested on: OVCAR-5 ovarian
# NCI-H23 lung = tested on: NCI-H23 lung
# MOLT-4 leukemia = tested on: MOLT-4 leukemia
# 786-0 renal = tested on: 786-0 renal
# SNB-19 CNS = tested on: SNB-19 CNS
# SK-OV-3 ovarian = tested on: SK-OV-3 ovarian
# RPMI-8226 leukemia = tested on: RPMI-8226 leukemia
# SK-MEL-5 melanoma = tested on: SK-MEL-5 melanoma
# KM12 colon = tested on: KM12 colon
# LOX IMVI melanoma = tested on: LOX IMVI melanoma
# DU-145 prostate = tested on: DU-145 prostate
# NCI/ADR-RES ovarian = tested on: NCI/ADR-RES ovarian
# T-47D breast = tested on: T-47D breast
# HCT-15 colon = tested on: HCT-15 colon
# A498 renal = tested on: A498 renal
# HOP-92 NSCLC = tested on: HOP-92 NSCLC
# SK-MEL-2 melanoma = tested on: SK-MEL-2 melanoma
# HCT-116 colon = tested on: HCT-116 colon
# SW-620 colon = tested on: SW-620 colon
# OVCAR-3 ovarian = tested on: OVCAR-3 ovarian
# HCC-2998 colon = tested on: HCC-2998 colon
compound,measurement,setting,value
COc1ccc(-n2cc(-c3cc(OC)c(OC)c(OC)c3)[nH]c2=S)cc1OC,GI50,SK-MEL-28 melanoma,> 100 µM
same,TGI,SK-MEL-28 melanoma,> 100 µM
same,GI50,UACC-62 melanoma,> 100 µM
same,TGI,UACC-62 melanoma,> 100 µM
same,GI50,PC-3 prostate,> 100 µM
same,TGI,PC-3 prostate,> 100 µM
same,GI50,SF-539 CNS,> 100 µM
same,TGI,SF-539 CNS,> 100 µM
same,GI50,SN12C renal,> 100 µM
same,TGI,SN12C renal,> 100 µM
same,GI50,CAKI-1 renal,> 100 µM
same,TGI,CAKI-1 renal,> 100 µM
same,GI50,CCRF-CEM leukemia,> 100 µM
same,TGI,CCRF-CEM leukemia,> 100 µM
same,GI50,MDA-MB-435,> 100 µM
same,TGI,MDA-MB-435,> 100 µM
same,GI50,SF-295 CNS,> 100 µM
same,TGI,SF-295 CNS,> 100 µM
same,GI50,BT-549 breast,> 100 µM
same,TGI,BT-549 breast,> 100 µM
same,GI50,K-562 leukemia,> 100 µM
same,TGI,K-562 leukemia,> 100 µM
same,GI50,SF-268 CNS,> 100 µM
same,TGI,SF-268 CNS,> 100 µM
same,GI50,COLO 205 colon,> 100 µM
same,TGI,COLO 205 colon,> 100 µM
same,GI50,MCF7 breast,> 100 µM
same,TGI,MCF7 breast,> 100 µM
same,GI50,HT29 colon,> 100 µM
same,TGI,HT29 colon,> 100 µM
same,GI50,NCI-H460 lung,> 100 µM
same,TGI,NCI-H460 lung,> 100 µM
same,GI50,TK-10 renal,> 100 µM
same,TGI,TK-10 renal,> 100 µM
same,GI50,UO-31 renal,> 100 µM
same,TGI,UO-31 renal,> 100 µM
same,GI50,A549 NSCLC,> 100 µM
same,TGI,A549 NSCLC,> 100 µM
same,GI50,SR leukemia,2570 nM
same,TGI,SR leukemia,8.76 µM
same,GI50,U251 CNS,> 100 µM
same,TGI,U251 CNS,> 100 µM
same,GI50,EKVX NSCLC,> 100 µM
same,TGI,EKVX NSCLC,> 100 µM
same,GI50,NCI-H522 lung,> 100 µM
same,TGI,NCI-H522 lung,> 100 µM
same,GI50,HL-60(TB) leukemia,> 100 µM
same,TGI,HL-60(TB) leukemia,> 100 µM
same,GI50,MDA-MB-231 breast,> 100 µM
same,TGI,MDA-MB-231 breast,> 100 µM
same,GI50,RXF 393 renal,> 100 µM
same,TGI,RXF 393 renal,> 100 µM
same,GI50,IGROV1 ovarian,> 100 µM
same,TGI,IGROV1 ovarian,> 100 µM
same,GI50,MALME-3M melanoma,> 100 µM
same,TGI,MALME-3M melanoma,> 100 µM
same,GI50,UACC-257 melanoma,> 100 µM
same,TGI,UACC-257 melanoma,> 100 µM
same,GI50,HOP-62 NSCLC,> 100 µM
same,TGI,HOP-62 NSCLC,> 100 µM
same,GI50,SNB-75 CNS,57 µM
same,TGI,SNB-75 CNS,> 100 µM
same,GI50,M14 melanoma,> 100 µM
same,TGI,M14 melanoma,> 100 µM
same,GI50,HS 578T breast,> 100 µM
same,TGI,HS 578T breast,> 100 µM
same,GI50,ACHN renal,> 100 µM
same,TGI,ACHN renal,> 100 µM
same,GI50,OVCAR-8 ovarian,> 100 µM
same,TGI,OVCAR-8 ovarian,> 100 µM
same,GI50,NCI-H226 lung,> 100 µM
same,TGI,NCI-H226 lung,> 100 µM
same,GI50,OVCAR-4 ovarian,> 100 µM
same,TGI,OVCAR-4 ovarian,> 100 µM
same,GI50,OVCAR-5 ovarian,> 100 µM
same,TGI,OVCAR-5 ovarian,> 100 µM
same,GI50,NCI-H23 lung,> 100 µM
same,TGI,NCI-H23 lung,> 100 µM
same,GI50,MOLT-4 leukemia,7.04 µM
same,TGI,MOLT-4 leukemia,> 100 µM
same,GI50,786-0 renal,> 100 µM
same,TGI,786-0 renal,> 100 µM
same,GI50,SNB-19 CNS,> 100 µM
same,TGI,SNB-19 CNS,> 100 µM
same,GI50,SK-OV-3 ovarian,> 100 µM
same,TGI,SK-OV-3 ovarian,> 100 µM
same,GI50,RPMI-8226 leukemia,> 100 µM
same,TGI,RPMI-8226 leukemia,> 100 µM
same,GI50,SK-MEL-5 melanoma,> 100 µM
same,TGI,SK-MEL-5 melanoma,> 100 µM
same,GI50,KM12 colon,> 100 µM
same,TGI,KM12 colon,> 100 µM
same,GI50,LOX IMVI melanoma,> 100 µM
same,TGI,LOX IMVI melanoma,> 100 µM
same,GI50,DU-145 prostate,> 100 µM
same,TGI,DU-145 prostate,> 100 µM
same,GI50,NCI/ADR-RES ovarian,> 100 µM
same,TGI,NCI/ADR-RES ovarian,> 100 µM
same,GI50,T-47D breast,> 100 µM
same,TGI,T-47D breast,> 100 µM
same,GI50,HCT-15 colon,> 100 µM
same,TGI,HCT-15 colon,> 100 µM
same,GI50,A498 renal,> 100 µM
same,TGI,A498 renal,> 100 µM
same,GI50,HOP-92 NSCLC,> 100 µM
same,TGI,HOP-92 NSCLC,> 100 µM
same,GI50,SK-MEL-2 melanoma,> 100 µM
same,TGI,SK-MEL-2 melanoma,> 100 µM
same,GI50,HCT-116 colon,> 100 µM
same,TGI,HCT-116 colon,> 100 µM
same,GI50,SW-620 colon,> 100 µM
same,TGI,SW-620 colon,> 100 µM
same,GI50,OVCAR-3 ovarian,> 100 µM
same,TGI,OVCAR-3 ovarian,> 100 µM
same,GI50,HCC-2998 colon,76.8 µM
same,TGI,HCC-2998 colon,> 100 µM

# From PubChem BioAssay (NCI)
